Reference: US11555006B2, “Elucidation of novel 13-series resolvins that increase with atorvastatin and clear infections” (The Brigham and Women's Hospital, Inc., priority 2015, dated 2023)

Columns and labels:
human macrophages [1] = assay: Human macrophage phagocytosis, ROS and efferocytosis; assay type: cell-based; conditions: for In vitro: human macrophage efferocytosis of apoptotic neutrophils: summary table of bioactions; for In vitro: human macrophage and neutrophil intra-phagolysosomal ROS production / In vitro: human macrophage and neutrophil phagocytosis of E. coli: summary table, macrophages and neutrophils
Protocol: Macrophages were prepared from peripheral blood mononuclear cells (PBMC) purchased from Children's Hospital Blood Bank, Boston, and phagocytosis was assessed as in^31. Briefly, macrophages (5×10^4 cells/well) were incubated with RvT1 (1 pM-10 nM), 1:1 mixture RvT2 and RvT3 (1 pM-10 nM), RvT4 (1 pM-10 nM) or vehicle (0.1% EtOH in DPBS) for 15 min at 37° C., then fluorescent labeled apoptotic cells were added and cells incubated 45 min at 37° C. Extracellular fluorescence was quenched using Trypan blue (1:15 dilution) and phagocytosis assessed using an M3 SpectraMax plate reader (Molecular Devices). In select experiments, macrophages (prepared as detailed above, 5×10^4 cells/well) or neutrophils (1×10^5 cells/well), obtained from human healthy volunteers and isolated as in ^31 in accordance with Partners Human Research Committee Protocol (number 1999P001297), were incubated with H2DCFDA (5 μM, 30 min, 37° C.), excess dye was washed off and cells incubated with RvT1 (1 pM-10 nM), 1:1 mixture RvT2 and RvT3 (1 pM-10 nM), RvT4 (1 pM-10 nM) or vehicle (0.1% EtOH in DPBS, 15 min, 37° C.), then incubated with E. coli (1:50 leukocytes to E. coli, 45 min, 37° C.). Intracellular reactive oxygen species were determined by measuring fluorescence using an M3 SpectraMax plate reader. To assess bacterial phagocytosis, macrophages (5×10^4 cells/well) or neutrophils (1×10^5 cells/well) were incubated with RvT1 (1 pM-10 nM), 1:1 mixture RvT2 and RvT3 (1 pM-10 nM), RvT4 (1 pM-10 nM) or vehicle (0.1% EtOH in DPBS, 15 min, 37° C.), then incubated with BacLight Green (Molecular Probes) labeled E. coli (1:50 leukocytes to E. coli, 45 min, 37° C.). Extracellular fluorescence was then quenched using Trypan blue (1:15 dilution), and phagocytosis was assessed using an M3 SpectraMax plate reader.

human macrophages [2] = assay: Human macrophage caspase 1, IL-1β and lactate dehydrogenase; assay type: cell-based; conditions: for In vitro: E. coli induced inflammasome components in human macrophages / In vitro: E. coli induced macrophage pyroptosis: summary table of bioactions
Protocol: Human macrophages (1.5×10^4 cells/well) were incubated with RvT1 (10 pM-10 nM), 1:1 mixture RvT2 and RvT3 (10 pM-10 nM), RvT4 (10 pM-10 nM) or vehicle (0.1% EtOH in DPBS, 15 min, 37° C.), then E. coli (7.5×10^5 cells/well, in DPBS, 16 h, 37° C.). Caspase 1 levels were assessed in macrophages by flow cytometry after cell fixing and permeabilization, staining with an anti-caspase 1 (Abcam; 4° C., 30 min) and anti-rabbit-Alexa 488 conjugated antibody (Molecular Probes; 4° C., 30 min). IL-1β levels were determined in cell-free supernatants using an anti-human IL-1β ELISA (eBiosciences) following manufacturer's instructions. Lactate dehydrogenase activity was measured in cell-free supernatants assessing the formation of NADH from NAD+ using a Lactate Dehydrogenase Assay kit (Sigma) following manufacturer's instructions.

[3] = system: E. coli infections in mice; assay: E. coli peritonitis in mice; assay type: in vivo; conditions: for In vivo: circulating platelet-leukocyte aggregates / In vivo: exudate pro-inflammatory eicosanoid levels during infections / In vivo: infection induced hypothermia / In vivo: macrophage efferocytosis of apoptotic neutrophils / In vivo: murine leukocyte phagocytosis of E. coli / In vivo: neutrophil recruitment during infections / In vivo: protective actions of atorvastatin in infections / In vivo: pyroptosis: summary table of bioactions
Protocol: All animal experiments were conducted in accordance with the Harvard Medical Area Standing Committee on Animals (protocol no. 02570). Mice (male FvB, 6-8 weeks old, Charles River, fed lab diet containing essential fatty acids as from supplier) were anesthetized with isoflurane and microbial peritonitis initiated. Briefly, test compounds or vehicle were injected i.p. or i.v. 5 min prior to live E. coli (serotype 06:K2:H1; 1×10^5 or 1×10^7 CFU/mouse). At designated time intervals mice were harvested, blood was collected via cardiac puncture in heparin, and peritoneal exudates were collected in 4 ml of PBS. The cellular composition in the exudates was determined using Turks solution and light microscopy, and by flow cytometry. For flow cytometry, exudate cells were incubated with anti-mouse CD16/CD32 (eBiosciences, 20 min, 4° C., in PBS containing 5% fetal calf serum-staining solution), followed by incubation with FITC-conjugated anti-mouse Ly6G antibody (clone: 1A8, eBiosciences), PE-conjugated anti-mouse F4/80 antibody (clone:BM8, eBiosciences) and PerCP-Cy5.5-conjugated anti-mouse CD11b antibody (clone:M1/70, eBiosciences) for 30 min (4° C., in staining solution). To assess bacterial phagocytosis in peritoneal exudate leukocytes, exudate cells were incubated with PerCP-Cy5.5-conjugated anti-mouse CD11b antibody (30 min, 4° C., in staining solution), then fixed and permeabilized using BD Perm/Wash™ Buffer (BD Biosciences) following manufacturer's instructions and incubated with FITC-conjugated anti-E. coli antibody (GenTex, 30 min, 4° C., in BD Perm/Wash™ Buffer). Efferocytosis in infectious exudates was assessed by incubating exudate leukocytes with PE-conjugated anti-mouse F4/80 antibody (30 min, 4° C., in staining solution), then fixed and permeabilized using BD Perm/Wash™ Buffer (BD Biosciences) and incubated with FITC-conjugated anti-mouse Ly6G antibody (30 min, 4° C., in BD Perm/Wash™ Buffer). Body temperatures were assessed using an Infrared thermometer (Fluke). Bacterial counts in peripheral blood and inflammatory exudates were determined by overnight cultures (37° C.) of serially diluted samples on LB agar plates. Caspase 1 levels were assessed by incubation of exudate cells with PerCP-Cy5.5-conjugated anti-mouse CD11b antibody (30 min, 4° C., in staining solution), then fixed and permeabilized using BD Perm/Wash™ Buffer (BD Biosciences), incubated with anti-caspase 1 antibody (Abcam, 30 min, 4° C., in BD Perm/Wash™ Buffer) followed by anti-rabbit Alexa 488 conjugated antibody (Life Technologies, 30 min, 4° C., in BD Perm/Wash™ Buffer). IL-1β levels were determined in cell-free supernatants using an anti-mouse IL-1β ELISA (Abcam) following manufacturer's instructions. Lactate dehydrogenase activity was measured in cell-free supernatants assessing the formation of NADH from NAD+ using a Lactate Dehydrogenase Assay kit (Sigma) following manufacturer's instructions.
In select experiments resolution indices were calculated as in ^27. Ψmax, maximal PMN numbers in exudates; Tmax, time point when PMN numbers reach maximum; R50, 50% of maximal PMN numbers; T50, time point when PMN numbers reduce to 50% of maximum; Ri (resolution interval), T50-Tmax, time period when 50% PMN are lost from the exudates. To assess the proresolving actions of the test products, these were administered 12 h after E. coli (10^5 CFU) inoculation, and resolution indices were assessed.
For some experiments, mice were administered via i.p. injection RvT1, RvT2, RvT3 and RvT4 (that were isolated as detailed below and combined as a mixture at a ratio of 2:1:1:8 respectively) 2 h after E. coli inoculation. Blood and lungs were harvested 6 h after E. Coli inoculation. Blood was employed to determine peripheral blood eicosanoid levels as detailed below.

human neutrophils = assay: Human neutrophil phagocytosis and ROS; assay type: cell-based; conditions: 1 pM-1.0 nM, n=4 donors
Protocol: Macrophages were prepared from peripheral blood mononuclear cells (PBMC) purchased from Children's Hospital Blood Bank, Boston, and phagocytosis was assessed as in^31. Briefly, macrophages (5×10^4 cells/well) were incubated with RvT1 (1 pM-10 nM), 1:1 mixture RvT2 and RvT3 (1 pM-10 nM), RvT4 (1 pM-10 nM) or vehicle (0.1% EtOH in DPBS) for 15 min at 37° C., then fluorescent labeled apoptotic cells were added and cells incubated 45 min at 37° C. Extracellular fluorescence was quenched using Trypan blue (1:15 dilution) and phagocytosis assessed using an M3 SpectraMax plate reader (Molecular Devices). […] Intracellular reactive oxygen species were determined by measuring fluorescence using an M3 SpectraMax plate reader. […] Extracellular fluorescence was then quenched using Trypan blue (1:15 dilution), and phagocytosis was assessed using an M3 SpectraMax plate reader.

nitric oxide synthase = assay: L-NAME and atorvastatin in E. coli inoculated mice, plasma RvT; assay type: in vivo
Protocol: In a separate set of experiments, mice were inoculated with E. coli; after 60 min they were given L-NAME (24 mg/kg) and 5 min later atorvastatin (5 μg) via i.v. injection. Plasma was obtained after 5 h via cardiac puncture and LM levels were investigated by lipid mediator metabololipidomics. For all animal experiments mice were randomized to vehicle or treatment groups without blinding.

[4] = system: human neutrophil-endothelial cell co-incubations; assay: Lipid mediator levels in human endothelial cell incubations and neutrophil-endothelial cell co-incubations; assay type: cell-based; conditions: atorvastatin 0.03-30 μM
Protocol: Prior to sample extraction, deuterated internal standards (d4-PGE2, d5-LXA4, d4-RvD2, d4-LTB4 and d8-5S-HETE) representing regions of interest in the chromatographic analysis (500 pg each) were added to facilitate quantification. Extracted samples were analyzed by a LC-MS-MS system, Qtrap 6500 (AB Sciex) equipped with a Shimadzu SIL-20AC autoinjector and LC-20AD binary pump (Shimadzu Corp.). An Agilent Eclipse Plus C18 column (100×4.6 mm×1.8 μm) was used with a gradient of methanol/water/acetic acid of 55:45:0.01 (vol:vol:vol) that was ramped to 85:15:0.01 (vol:vol:vol) over 10 min and then to 98:2:0.01 (vol:vol:vol) for the next 8 min. This was subsequently maintained at 98:2:0.01 (vol:vol:vol) for 2 min. The flow rate was maintained at 0.4 ml/min. To monitor and quantify the levels of lipid mediators, a multiple reaction monitoring (MRM) method was developed with signature ion fragments (m/z) for each molecule monitoring the parent ion (Q1) and a characteristic daughter ion (Q3). […] Calibration curves were determined using a mixture of lipid mediators obtained via total organic synthesis, where these lipid mediators were not available (RvT1, RvT2, RvT3, RvT4 and 13-HDPA); known mediators with similar chromatographic properties (RvD2 for RvT1, RvD1 for RvT2 and RvT3; RvD5 for RvT4; 13-HDHA for 13-HDPA) were used. […]

Row | Compound | In vitro: human macrophage efferocytosis of apoptotic neutrophils (human macrophages [1]) | In vitro: human macrophage and neutrophil intra-phagolysosomal ROS production (human macrophages [1]) | In vitro: human macrophage and neutrophil phagocytosis of E. coli (human macrophages [1]) | In vitro: E. coli induced inflammasome components in human macrophages (human macrophages [2]) | In vitro: E. coli induced macrophage pyroptosis (human macrophages [2]) | In vivo: circulating platelet-leukocyte aggregates [3] | In vivo: exudate pro-inflammatory eicosanoid levels during infections [3] | In vivo: infection induced hypothermia [3] | In vivo: macrophage efferocytosis of apoptotic neutrophils [3] | In vivo: murine leukocyte phagocytosis of E. coli [3] | In vivo: neutrophil recruitment during infections [3] | In vivo: protective actions of atorvastatin in infections [3] | In vivo: pyroptosis [3] | other results
1 | CCC=CCC=CC=CC(O)C(O)C=CC=CC(O)CCCCCC(=O)O (centres unmarked) [RvT3, 7,12,13-trihydroxy-docosapentaenoic acid] | Stimulates human | Stimulates human | Stimulates human | Reduces E. coli induced | Reduces E. coli induced | Reduces circulating platelet- | Reduces exudate pro- | Protects against infection | Stimulates macrophage | Stimulates murine leukocyte | Limits neutrophil | Elaborates the protective | Reduces pyroptosis | 
2 | CCC(O)/C=C/C=C\C=C\C(O)C/C=C\C=C\C(O)CCCCCC(=O)O (centres unmarked) [RvT1, 7,13,20-trihydroxy-docosapentaenoic acid] | Stimulates human | Stimulates human | Stimulates human | Reduces E. coli induced | Reduces E. coli induced | Reduces circulating platelet- | Reduces exudate pro- | Protects against infection | Stimulates macrophage | Stimulates murine leukocyte | Limits neutrophil recruitment | Elaborates the protective | Reduces pyroptosis | E. coli phagocytosis in human macrophages (human macrophages [1]; 1 pM-10 nM): dose-dependently increased; efferocytosis of apoptotic neutrophils by human macrophages (human macrophages [1]; 1 pM-10 nM): dose-dependently increased; intracellular reactive oxygen species (ROS) in human macrophages (human macrophages [1]; 1 pM-10 nM): dose-dependently increased; IL-1β expression, human macrophages (human macrophages [2]; 10 pM-10 nM, E. coli 16 h): decreasing; caspase-1 expression, human macrophages (human macrophages [2]; 10 pM-10 nM, E. coli 16 h): decreasing; extracellular lactate dehydrogenase activity, human macrophages (human macrophages [2]; 10 pM-10 nM, E. coli 16 h): decreasing; increase in E. coli phagocytosis, human neutrophils (human neutrophils): 20-55%; increase in intracellular ROS, human neutrophils (human neutrophils): 20-40%
3 | CC/C=C\C/C=C\C=C\C(O)C/C=C\C=C\C(O)CCCCCC(=O)O (centres unmarked) [RvT4, 7,13-dihydroxy-docosapentaenoic acid] | Stimulates human | Stimulates human | Stimulates human | Reduces E. coli induced | Reduces E. coli induced | Reduces circulating platelet- | Reduces exudate pro- | Protects against infection | Stimulates macrophage | Stimulates murine leukocyte | Limits neutrophil recruitment | Elaborates the protective | Reduces pyroptosis | 
4 | COC(=O)[C@@H](N)CCCNC(=N)N[N+](=O)[O-] [L-NAME, L-NG-Nitroarginine Methyl Ester] |  |  |  |  |  |  |  |  |  |  |  |  |  | atorvastatin-mediated increases in plasma RvT (nitric oxide synthase; L-NAME 24 mg/kg prior to atorvastatin 5 μg/mouse i.v., E. coli 1×10^5 CFU/mouse): significantly reversed; neutrophil recruitment to the peritoneum (nitric oxide synthase; L-NAME prior to atorvastatin during mouse infections): increased
5 | CC(C)c1c(C(=O)Nc2ccccc2)c(-c2ccccc2)c(-c2ccc(F)cc2)n1CC[C@@H](O)C[C@@H](O)CC(=O)O [atorvastatin] |  |  |  |  |  |  |  |  |  |  |  |  |  | RvT in neutrophil-endothelial cell co-cultures [4]: dose-dependent increases; PGI2 and 15-deoxy-Δ-12,14-PGJ2 ([3]; treatment 2 h after E. coli, blood 6 h after E. coli): increases; endothelin-1 and plasminogen activator inhibitor-1 ([3]; treatment 2 h after E. coli, lung mRNA 6 h after E. coli): reduced
6 | 7,8,13-trihydroxy-docosapentaenoic [RvT2] | Stimulates human | Stimulates human | Stimulates human | Reduces E. coli induced | Reduces E. coli induced | Reduces circulating platelet - | Reduces exudate pro- | Protects against infection | Stimulates macrophage | Stimulates murine leukocyte | Limits neutrophil recruitment | Elaborates the protective | Reduces pyroptosis | 
